Laboratory results: publication PMC8834644, “Effect of FKBP12-Derived Intracellular Peptides on Rapamycin-Induced FKBP–FRB Interaction and Autophagy” (Cells, 2022)

What was measured:
[1] = tested on: rapamycin-induced FKBP–FRB interaction within HEK293 cells; test: NanoBiT luciferase structural complementation assay of rapamycin-induced FKBP–FRB interaction; format: cell-based, human; conditions: HEK293 co-transfected with FRB-LgBit and FKBP-SmBiT, 200 nM rapamycin, RLU for 60 min, qualitative; for peptide concentration inhibiting rapamycin-induced FKBP–FRB interaction: peptide added with rapamycin plus booster after 30 min, at least five determinations in triplicates
Description: The protein complementation assay technology used herein, NanoBiT® (Promega, Madison, WI, USA), was commercially designed to investigate inducible PPI under in vivo cellular conditions, allowing the analyses of distinctive molecules that, introduced within cells, can modify inducible PPI [58]. All experimental procedures were performed according to the manufacturer’s recommendations. Briefly, transient transfections were performed with NanoBiT® PPI Control Pair FKBP–FRB (Promega, Madison, WI, USA; catalog number N2016), containing the FRB-LgBit and FKBP-SmBiT vectors (NanoBiT® PPI Control Pair FKBP, FRB; catalog number N2016, Promega, Madison, WI, USA). Plasmids were co-transfected into HEK293 cells using FuGENE® 6 Transfection Reagent (Promega, Madison, WI, USA), according to the recommendations of the manufacturers. Cells transfected in the absence of DNA were the negative controls of the experiments, whereas the green fluorescent protein expressing pEGFP plasmid (Clontech, Mountain View, CA, USA; 100 ng) was used to evaluate transfections efficiencies; after 30 h of transfection, the pEGFP expression was easily assessed by fluorescent microscopy (data not shown).
HEK293 cells (approximately 10^4) cultured in a 96-well plate in DMEM high-glucose medium, supplemented with 10% FBS and 1% penicillin/streptomycin, were transiently co-transfected with 200 ng of both […] and FKBP-SmBiT vectors (NanoBiT® PPI Control Pair FKBP, FRB; catalog number N2016, Promega, Madison, WI, USA); this final plasmid concentration of 200 ng was defined previously testing different plasmid concentrations, as shown in Supplemental Figure S1A. The transfected cells were incubated in Opti-MEM® I Reduced Serum Medium culture medium (Gibco, Gaithersburg, MD, USA) for 2 h and then treated with 200 nM of rapamycin (BPSBioscience, CAS 53123-88-9, San Diego, CA, USA) diluted in Opti-MEM®/0.01% DMSO (Gibco, Gaithersburg, MD, USA; this rapamycin concentration of 200 nM was defined previously testing different concentrations, as shown in Supplemental Figure S1B). […] Graphs of RLU versus time were plotted by GraphPad Prism (GraphPad, San Diego, CA, USA). Control experiments were conducted using VFD10 and VFD7 without cpp covalently bound, in addition to cpp alone (Supplemental Figure S2).

[2] = tested on: Atg5^+/+ mouse embryonic fibroblasts cells (MEF); test: Cell viability (MTT) after hypoxia-reoxygenation, Atg5+/+ MEF; format: cell-based; conditions: 1 µM peptide from 30 min before ischemia with boosters, 3 h hypoxia, 3 h reoxygenation; n = 3 independent experiments; vs. cpp
Description: (§1) These experiments were performed to evaluate the possible pharmacological application of VFD7-cpp and additional selected peptides on cell viability, following an ischemic challenge. These experiments also contributed to investigate the possible biological significance of InPeps for cell viability following hypoxia-reoxygenation. Therefore, herein the effect of peptides was evaluated in wild type mouse embryonic fibroblasts cells (MEF) expressing Atg5 (Atg5^+/+) and in the MEF missing autophagy pathway due to the lack of Atg5 (Atg5^−/−); Atg5 is indispensable in both canonical and non-canonical autophagy. Atg5^+/+ and Atg5^−/− MEF were cultured in a 96-well plate in DMEM high-glucose medium supplemented with 10% FBS and 1% penicillin/streptomycin, as previously described. […] After the protocol, cell viability was measured by using tetrazolium salt 3-(4,5-Dimethylthiazol 2-yl)-2,5-diphenyltetrazolium bromide (MTT) assay; these assays measure the mitochondrial metabolic rate and indirectly reflect the viable cell numbers, which are the most commonly used method to evaluate the effect of compounds on cell viability on cultured cells. […]

[3] = tested on: autophagy-deficient Atg5^−/− MEF cells; test: Cell viability (MTT) after hypoxia-reoxygenation, Atg5-/- MEF; format: cell-based, mouse; conditions: 1 µM peptide from 30 min before ischemia with boosters, 3 h hypoxia, 3 h reoxygenation; n = 3 independent experiments
Description: as §1

[4] = tested on: HEK293 cells; conditions: introduced into HEK293 cells by transient membrane permeabilization with CHAPS; cited from earlier work
Description: (§2) VFD10 and VFD7 (10–50 µM) were shown by surface plasmon resonance to inhibit PPI between cytosolic brain proteins and both calmodulin (CaM) and 14-3-3 epsilon. VFD7 (5–20 µM) introduced into the HEK293 cells by means of transient membra ...

[5] = tested on: PPI between cytosolic brain proteins and 14-3-3 epsilon; conditions: surface plasmon resonance; cited from earlier work
Description: as §2

[6] = tested on: PPI between cytosolic brain proteins and calmodulin (CaM); conditions: surface plasmon resonance; cited from earlier work
Description: as §2

[7] = tested on: thimet oligopeptidase and CaM; conditions: in vitro surface plasmon resonance; cited from earlier work
[8] = after 30 min of internalization into Chinese hamster ovarian cells; random control peptide; cited from earlier work
Description: Hundreds of InPeps have been described from the most diverse sources, including plants, yeast, fish, and mammals. Despite of the strong evidence that InPeps are natural constituents of the cells, the expected short half-life of peptides within cells full of peptidases contests their stability and biological significance. […] For example, after 30 min of internalization into Chinese hamster ovarian cells, the ...

## AVELLYGRKKKRRQRRR [AVE5-cpp, derived from VFD5-cpp, D to A]
[1]
  effect on rapamycin-induced FKBP–FRB interaction (in words): unable to alter rapamycin-induced FKBP–FRB interactions

## DVELLYGRKKRRQRRR [VFD5-cpp, N-terminally shortened VFD7-cpp derivative]
[1]
  effect on rapamycin-induced FKBP–FRB interaction (in words): reduced potencies compared to VFD6-cpp or VFD7-cpp
  peptide concentration inhibiting rapamycin-induced FKBP–FRB interaction: 500 nM

## EVELLYGRKKKRRQRRR [EVE5-cpp, derived from VFD5-cpp, D to E]
[1]
  effect on rapamycin-induced FKBP–FRB interaction (in words): unable to alter rapamycin-induced FKBP–FRB interactions

## FDVELLYGRKKKRRQRRR [VFD6-cpp, FDVELL (VFD6) covalently coupled to cpp]
[1]
  peptide concentration inhibiting rapamycin-induced FKBP–FRB interaction: 1 to 500 nM
[2]
  cell viability after hypoxia-reoxygenation (MTT): increase cell viability
[3]
  cell viability after hypoxia-reoxygenation (MTT): but not on autophagy-deficient Atg5^−/− MEF cells

## VELLYGRKKRRQRRR [VFD4-cpp, N-terminally shortened VFD7-cpp derivative]
[1]
  effect on rapamycin-induced FKBP–FRB interaction (in words): reduced potencies compared to VFD6-cpp or VFD7-cpp
  peptide concentration inhibiting rapamycin-induced FKBP–FRB interaction: 500 nM

## VFAVELLYGRKKKRRQRRR [VFA7-cpp, VFD7-cpp with D substituted to A]
[1]
  effect on rapamycin-induced FKBP–FRB interaction (in words): unable to alter rapamycin-induced FKBP–FRB interactions

## VFDVELL [VFD7, InPep VFDVELL derived from FKBP12]
[1]
  effect on rapamycin-induced FKBP–FRB interaction (in words): have no effect
[4]
  peptide concentration shown to increase cytosolic Ca2+ concentrations: 5 to 20 µM
[5]
  peptide concentration shown to inhibit PPI with 14-3-3 epsilon: 10 to 50 µM
[6]
  peptide concentration shown to inhibit PPI with calmodulin: 10 to 50 µM
[7]
  effect on thimet oligopeptidase–CaM interaction (in words): inhibits the interaction but does not disrupt the association

## VFDVELLKLE [VFD10, InPep … derived from FKBP12]
[1]
  effect on rapamycin-induced FKBP–FRB interaction (in words): have no effect
[5]
  peptide concentration shown to inhibit PPI with 14-3-3 epsilon: 10 to 50 µM
[6]
  peptide concentration shown to inhibit PPI with calmodulin: 10 to 50 µM

## VFDVELLKLEYGRKKKRRQRRR [VFD10-cpp, VFD10 covalently coupled to cpp at C-terminus]
[1]
  effect on rapamycin-induced FKBP–FRB interaction (in words): unable to alter rapamycin-induced FKBP–FRB interactions

## VFEVELLYGRKKKRRQRRR [VFE7-cpp, VFD7-cpp with D substituted to E]
[1]
  effect on rapamycin-induced FKBP–FRB interaction (in words): unable to alter rapamycin-induced FKBP–FRB interactions

## VNMVPVGWASFR [random peptide used as the control in an earlier study]
[8]
  peptide recovered after internalization: 100%

## YGRKKKRRQRRR [cpp, cell-penetrating peptide used alone as control, reference compound]
[1]
  effect on rapamycin-induced FKBP–FRB interaction (in words): have no effect
